The structures appear in SMILES notation.

Assay [1] deals with HinNTR, NTR from Haemophilus influenzae. As to conditions: Theys et al., 2006, cited from earlier work.
The subject of another assay is HCT116 tumours. Description: Mouse xenograft tumour growth delay with CB1954. In kind it is in vivo, NMRI nu/nu mice (human colorectal HCT116 carcinoma). As for the experimental part: Human colorectal HCT116 carcinoma cells were grown in DMEM medium supplemented with 10% FBS, trypsinized and injected subcutaneously in 100 μl PBS/ . . . % matrigel at a concentration of 5.10^6 cells in the abdominal flank of adult NMRI nu/nu mice. As soon as tumours were palpable, tumour volumes were determined three times per week by measuring three orthogonal diameters using calipers. Volumes were calculated according to the formula V=A×B×C×/6. All experiments were conducted in accordance with local institutional guidelines of the University of Leuven, approved by the animal ethics committee and procedures were according to the guidelines defined by the UKCCCR (12). Treatment was initiated when tumours reached a volume of ˜250 mm^3. Five days post spore injection (5.10^7 cfu/100 μl), sham or prodrug treatment was started. CB1954 was prepared as described previously (13) and administered intraperitoneally (i.p.) at a concentration of 15 mg/kg for five consecutive days. At the end of the follow-up period, tumours and normal tissues were excised, ground and serially diluted to determine colonization levels (14). Tumour growth delay was determined for each individual tumour within the different groups as the time necessary to reach three times their initial volume at the start of the treatment. One-way ANOVA with a Tukey's posttest was used to determine statistical significance between the different growth curves.
Since strains E1 and N1 express stably-integrated NTR under the regulatory control of a strong promoter without inclusion of any antibiotic resistance gene, it was next determined whether administration of these clinically-applicable strains in combination with prodrug administration to tumour-bearing animals would result in anti-tumour efficacy. It was first evaluated whether inactivation of pyrE affected the tumour-colonizing capacity of systemically administered spores. Mice bearing subcutaneously transplanted HCT116 tumours were injected and tumour colonization tested seven days later. […] On average 10^9 cfu were found per gram of tumour tissue. Colonization was also confirmed by gram staining. In tumours, C. sporogenes vegetative cells are visible as purple, gram-positive rods (FIG. 3 C). As expected, C. sporogenes vegetative cells could not be detected in any of the normal tissues investigated. […] Spores were collected, quantified and intravenously administered at a concentration of 5.10×10^7 per animal when tumours reached a volume of ˜250 mm^3, followed five days later by sham or prodrug administration. […] In all cases, strain specific signals could be detected thereby confirming stability of the integrated construct.

Assay [2] concerns E. coli NfnB nitroreductase, wild type. As to conditions: Knox et al., 1992, cited from earlier work.
In assay [3] the test system is E. coli NfnB variant N71S/F124K. To be noted: Searle et al., 2004 and Race et al., 2007, cited from earlier work.

Consider `NC(=O)c1cc(N2CC2)c([N+](=O)[O-])cc1[N+](=O)[O-]` [CB1954, 5-(aziridin-1-yl)-2,4-dinitrobenzamide], for which the Kcat is listed as 56.2 S^−1 in assay [1] (CB1954), 6 S^−1 in assay [2] (CB1954) and 7.5 S^−1 in assay [3] (CB1954). Besides, the Km in assay [1] (read-out: Km^CB1954) was 690 µM; in assay [2] (read-out: Km^CB1954), 862 µM; in assay [3] (read-out: Km^CB1954), 170 µM. Also, the “tumours completely disappeared, E1/CB1954 group” value with HCT116 tumours (CB1954 15 mg/kg i.p. x 5 days + E1 (E. coli NfnB) spores) is recorded as “two out of 16”. In addition, the “tumours completely disappeared, N1/CB1954 group” value in the assay on HCT116 tumours (CB1954 15 mg/kg i.p. x 5 days + N1 (NmeNTR) spores) was “four out of 16”. Besides, in the assay with HCT116 tumours (CB1954 15 mg/kg i.p. x 5 days, pyrE mutant spores), the “tumour growth delay, pyrE mutant spores alone or with CB1954” value is on record as “small growth delay”. Moreover, in the assay with HCT116 tumours (CB1954 15 mg/kg i.p. x 5 days, E1 (NfnB) or N1 (NmeNTR) C. sporogenes spores, most pronounced for N1 (p<0.001, one way ANOVA)), the “tumour growth delay, E1 or N1 with CB1954” value is given as “significant growth delay”.

By Km is commonly meant the substrate concentration at which the rate is half of its maximum.

These data come from US10183062B2, “Treatment for cancer” (The University of Nottingham, priority 2013, dated 2019).
